# Reference: US8637523B2, “Compounds for the reduction of beta-amyloid production” (Bristol-Myers Squibb Company, priority 2010, dated 2014)
# Tested on: Aβ42
# Assay: Cellular assay for inhibition of Aβ1-42 production (H4 APP751 SWE clone 8.20)
# Assay type: cell-based
# Settings: 19 h, H4 APP751 SWE clone 8.20 cells, 19 h incubation; read-out: Activity Rating (Aβ42 cellular IC50), class symbol
# Protocol: Cellular Assays for Inhibition of Aβ1-40 and Aβ1-42 Production
# H4 cells stably transfected with APP751 containing the Swedish mutation (H4 APP751 SWE clone 8.20, developed at BMS) were maintained in log phase through twice weekly passage at a 1:20 split. […] Following incubation for 19 h in 5% CO2 at 37° C., plates were briefly centrifuged (1000 rpm, 5 min). A 10 μl aliquot from each well was transferred to a second assay plate (Costar 3709) for Aβ40 measurements. Antibody cocktails were freshly prepared by dilution into 40 mM Tris-HCl (pH 7.4) with 0.2% BSA and added to assay plates. For Aβ42 measurements, antibodies specific for the Aβ42 neoepitope (565, developed at BMS; conjugated to the Wallac reagent (Perkin Elmer)) and the N-terminal sequence of Aβ peptide (26D6, developed at SIBIA; conjugated to APC (Perkin Elmer)) were mixed and 20 μl of the mixture was added to each well of the incubated cell plate yielding a final concentration of 0.8 ng/well 565 and 75 ng/well 26D6. For the Aβ40 measurements, antibodies specific for the Aβ40 neoepitope (TSD, developed at BMS; conjugated to the Wallac reagent (Perkin Elmer)) and 26D6 as described above were mixed and 20 μl of the mixture was added to the 10 μl aliquots which had been removed previously from the cell plate yielding a final concentration of 1.6 ng/well TSD and 17.5 ng/well 26D6. Assay plates containing antibodies were sealed with aluminum foil and incubated overnight at 4° C. Signal was determined using a Viewlux counter (Perkin Elmer) and IC50 values determined using curve fitting in CurveMaster (Excel Fit based).
row,SMILES,IC50
1,"Cc1ncn(-c2ccc3cc2OCCNCCNc2nc(nc4c2CCC4c2ccc(F)cc2)N3)n1 (single isomer, unassigned) [Example 55B, 19-(4-fluorophenyl)-7-(3-methyl-1H-1,2,4-triazol-1-yl)-11,12,13,14,15,17,18,19-octahydro-10H-16,2-(azeno)-8,4-(metheno)cyclopenta[i][1,4,7,11,13]oxatetraazacyclooctadecine]",10 to 100 nM
2,"Cc1ncn(-c2ccc3cc2OCC(O)CCNc2nc(nc4c2CCC4c2ccc(F)cc2)N3)n1 (single isomer, unassigned) [Example 72B, 18-(4-fluorophenyl)-7-(3-methyl-1H-1,2,4-triazol-1-yl)-10,11,12,13,14,16,17,18-octahydro-15,2-(azeno)-8,4-(metheno)cyclopenta[h][1,6,10,12]oxatriazacycloheptadecin-11(3H)-ol]",< 10 nM

# Same assay, conditions: H4 APP751 SWE clone 8.20 cells, 19 h incubation; read-out: Activity Rating (Aβ42 cellular IC50), class symbol
row,SMILES,IC50
1,"CN1CCCCOc2cc(ccc2C#N)Nc2nc3c(c1n2)CCC3c1ccc(F)cc1F (single isomer, unassigned) [Example 32A, 7-cyano-18-(2,4-difluorophenyl)-14-methyl-10,11,12,13,14,16,17,18-octahydro-15,2-(azeno)-8,4-(metheno)cyclopenta[h][1,6,10,12]oxatriazacycloheptadecine]",10 to 100 nM
2,"CN1CCCCOc2cc(ccc2C#N)Nc2nc3c(c1n2)CCC3c1ccc(F)cc1F (single isomer, unassigned) [Example 32B, 7-cyano-18-(2,4-difluorophenyl)-14-methyl-10,11,12,13,14,16,17,18-octahydro-15,2-(azeno)-8,4-(metheno)cyclopenta[h][1,6,10,12]oxatriazacycloheptadecine]",100 to 1000 nM
3,"Cc1ncn(-c2ccc3cc2OCCNCCNc2nc(nc4c2CCC4c2ccc(F)cc2)N3)n1 (single isomer, unassigned) [Example 55A, 19-(4-fluorophenyl)-7-(3-methyl-1H-1,2,4-triazol-1-yl)-11,12,13,14,15,17,18,19-octahydro-10H-16,2-(azeno)-8,4-(metheno)cyclopenta[i][1,4,7,11,13]oxatetraazacyclooctadecine]",10 to 100 nM
4,"Cc1ncn(-c2ccc3cc2OCC(O)CCNc2nc(nc4c2CCC4c2ccc(F)cc2)N3)n1 (single isomer, unassigned) [Example 72A, 18-(4-fluorophenyl)-7-(3-methyl-1H-1,2,4-triazol-1-yl)-10,11,12,13,14,16,17,18-octahydro-15,2-(azeno)-8,4-(metheno)cyclopenta[h][1,6,10,12]oxatriazacycloheptadecin-11(3H)-ol]",< 10 nM
5,"Cc1ncn(-c2ccc3cc2OCC(O)CCNc2nc(nc4c2CCC4c2ccc(F)cc2)N3)n1 (single isomer, unassigned) [Example 72C, 18-(4-fluorophenyl)-7-(3-methyl-1H-1,2,4-triazol-1-yl)-10,11,12,13,14,16,17,18-octahydro-15,2-(azeno)-8,4-(metheno)cyclopenta[h][1,6,10,12]oxatriazacycloheptadecin-11(3H)-ol]",< 10 nM
6,"Cc1ncn(-c2ccc3cc2OCC(O)CCNc2nc(nc4c2CCC4c2ccc(F)cc2)N3)n1 (single isomer, unassigned) [Example 72D, 18-(4-fluorophenyl)-7-(3-methyl-1H-1,2,4-triazol-1-yl)-10,11,12,13,14,16,17,18-octahydro-15,2-(azeno)-8,4-(metheno)cyclopenta[h][1,6,10,12]oxatriazacycloheptadecin-11(3H)-ol]",< 10 nM

# Same assay, conditions: H4 APP751 SWE clone 8.20 cells, 19 h incubation; unit inferred; read-out: Activity Rating (Aβ42 cellular IC50), numeric value
row,SMILES,IC50
1,"CN1CCCCOc2cc(ccc2C#N)Nc2nc3c(c1n2)CCC3c1ccccc1 (single isomer, unassigned) [Example 34A, 7-cyano-14-methyl-18-phenyl-10,11,12,13,14,16,17,18-octahydro-15,2-(azeno)-8,4-(metheno)cyclopenta[h][1,6,10,12]oxatriazacycloheptadecine]",21 nM
2,"CN1CCCCOc2cc(ccc2C#N)Nc2nc3c(c1n2)CCC3c1ccccc1 (single isomer, unassigned) [Example 34B, 7-cyano-14-methyl-18-phenyl-10,11,12,13,14,16,17,18-octahydro-15,2-(azeno)-8,4-(metheno)cyclopenta[h][1,6,10,12]oxatriazacycloheptadecine]",160 nM
